Measured values published in patent US7098246B2, “Natural compounds and their derivatives for the prevention and treatment of cardiovascular, hepatic and renal diseases and for cosmetic applications” (Puleva Biotech, S.A., priority 2002, dated 2006).

What was measured:
[1] = Stability against forced oxidation at 120° C. in an oily food matrix (refined oil, Rancimat)
Protocol: This was done by measuring the remaining amount of each of the compounds when these were subjected to forced oxidation at 120° C. Oxidation was done by passing a dry air current (˜20 I/h) through an aliquot of the sample (4 ml) placed in a reactor heated to 120° C. using a Metrohm-Herisau A. G Rancimat apparatus.
The solutions of all the compounds were prepared in refined oil. A total of 5 mg of II were dissolved in 5 g of refined oil, and finally 0.5 g of this solution were dissolved in. 5 g of refined oil. Similarly, solutions III and VIII were prepared in refined oil. Aliquots of 0.3 ml were collected at different times for each solution and were stored at −20° C. […] After introducing the sample, 6 ml of hexane, 6 ml of hexane/ethyl acetate (9:1) and 10 ml of methanol were passed through it, and then the methanolic fraction was concentrated to 1 ml volume. […] Once again, the methanolic phase was concentrated to 1 ml volume for analysis.

[2] = Absorption of hydroxytyrosol administered orally in human volunteers; assay type: in vivo; conditions: oral
Protocol: Pure hydroxytyrosol was obtained from olive leaves using standard extraction procedures compatible with the consumption of food products.
A 2.5 mg dose of hydroxytyrosol was administered per kg weight to 5 fasting healthy volunteers aged from 22–30 years who had not taken olive oil in their diet for at least two days before the study. Hydroxytyrosol dissolved in water was administered orally and afterwards blood samples were obtained at 0, 10, 20, 30, 60, 120 minutes. The plasma level of hydroxytyrosol and derived metabolites were determined by gas chromatography-mass spectometry using anthracene and napthol as internal standards.

[3] = Absorption of hydroxytyrosol and derivatives administered orally in mice (hydroxytyrosol in plasma); conditions: oral, oily solution, equivalent amounts (10 mg II, 13 mg III, 70 mg IX)
From the text: Plasma was isolated from each blood sample by extraction with ethyl acetate and analysed by gas chromatography-mass spectometry.

Row | SMILES | remaining amount of compound during forced oxidation ([1]; 120° C., dry air current, after 10 hours, RP-HPLC) | degradation state during forced oxidation ([1]; 120° C., after 10 hours) | time bioavailable after administration [2] | time of return of hydroxytyrosol plasma level to values similar to initial ones ([2]; 2.5 mg per kg weight in water) | time of maximum plasma level of hydroxytyrosol after administration ([2]; 2.5 mg per kg weight in water, fasting) | stability against oxidation compared with hydroxytyrosol ([1]; forced oxidation at 120° C.) | Hydroxytyrosol in plasma, 15 min. ([3]; 15 min) | Hydroxytyrosol in plasma, 60 min. ([3]; 60 min)
1 | CCCCCCCCCCCCCCCCCCOc1ccc(CCO)cc1O [Compound VII, 2-(4-stearyloxy-3-hydroxyphenyl) ethanol] | 50% | – | – | – | – | – | – | –
2 | OCCc1ccc(O)c(O)c1 [II, 2-(3,4-dihydroxyphenyl) ethanol] | – | completely degraded | at least 30 minutes | 30 min | 10 min | – | – | –
3 | CC(=O)OCCc1ccc(O)c(O)c1 [III, 2-(3,4-dihydroxyphenyl) ethyl acetate] | – | completely degraded | – | – | – | takes longer to degrade than hydroxytyrosol (II) | 0.68 mg/L | 0.06 mg/L
